# Assay results taken from patent US5387602A, “1.5-diphenyl-3-(N-hydroxycarbamoyloxyalkyl)pyrazoles” (Ortho Pharmaceutical Corporation, priority 1993, dated 1995).
# Biological target: T1, RBL-1 Cell Cyclooxygenase (Rattus norvegicus, UniProt Q63921)
# T1 construct: the supernatant was saved as the source of enzymes; endogenous in cells; host or cells: RBL-1 (rat basophilic leukemia cells), 10,000×g supernatant of homogenate
# T1 sequence (Q63921 27-602): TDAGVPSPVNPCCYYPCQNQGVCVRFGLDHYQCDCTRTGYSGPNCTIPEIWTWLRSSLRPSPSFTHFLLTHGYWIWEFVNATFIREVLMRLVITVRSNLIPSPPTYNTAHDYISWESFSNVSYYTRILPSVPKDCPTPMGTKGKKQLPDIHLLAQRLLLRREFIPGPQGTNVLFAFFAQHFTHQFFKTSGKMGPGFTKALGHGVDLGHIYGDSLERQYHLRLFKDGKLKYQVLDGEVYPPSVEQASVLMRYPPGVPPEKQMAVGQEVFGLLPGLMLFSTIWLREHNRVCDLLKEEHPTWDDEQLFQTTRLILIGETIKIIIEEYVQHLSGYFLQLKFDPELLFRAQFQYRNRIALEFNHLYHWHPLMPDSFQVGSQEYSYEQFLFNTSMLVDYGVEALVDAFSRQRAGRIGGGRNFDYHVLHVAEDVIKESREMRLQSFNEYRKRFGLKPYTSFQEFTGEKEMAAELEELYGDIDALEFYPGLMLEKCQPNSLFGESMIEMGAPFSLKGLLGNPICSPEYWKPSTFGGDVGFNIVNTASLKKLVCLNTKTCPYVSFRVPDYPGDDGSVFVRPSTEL
# Experiment: Procedure II: cyclooxygenase inhibition in disrupted RBL-1 cells (supernatant as enzyme source)
# Assay type: biochemical
# Details: not given
# Description: RBL-1 Cell 5-Lipoxygenase and Cyclooxygenase
# Rat basophilic leukemia cells (RBL-1; 5×10^7 viable cells/mL) were disrupted by homogenization on ice (four 20 sec bursts) with a Brinkman polytron. Complete cell breakage was verified microscopically. The homogenate was then centrifuged at 10,000×g for 48 minutes at 4° C. The pellet was discarded and the supernatant was saved as the source of enzymes. The supernatant was pre-incubated for five minutes at 37° C. in the presence of 2 mM of CaCl2 and compound or vehicle (1% DMSO). The conversion of AA into 5-LO products was initiated by adding 10 μL (50 μCi) of 1-^14 C-AA to each tube and incubated at 37° C. for 20 minutes. The reaction was stopped by adjusting the pH of each sample to 3 to 3.5 with 2M formic acid. Samples were extracted with three volumes of chloroform to isolate the products of 5-LO formed during the reaction. Fractions were dried under nitrogen, then resuspended in 40 μL of chloroform and spotted onto silica gel HL plates. The plates were developed in A-9 solvent. The dried plates were analyzed using a Bioscan Imaging TLC scanner to determine the percentage of radiolabelled AA converted to 5-HETE in each sample.
# In the following tables, the superscripts indicate the number of experiments and, unless otherwise stated, the dose at which % inhibition is reported is 3 MPK.
row,% INHIBITION CO (Procedure II),SMILES
1,0%,COc1ccc(-n2nc(COC(=O)NO)c(Cl)c2-c2ccc(C)cc2)cc1 [1-P]
2,82%,COc1ccc(-n2nc(COC(=O)N(C)O)c(Cl)c2-c2ccc(C)cc2)cc1 [1-Q]
3,8%,COc1ccc(-n2nc(COC(=O)N(O)C(C)C)c(Cl)c2-c2ccc(C)cc2)cc1 [1-R]
4,44%,COc1ccc(-n2nc(CCOC(=O)N(C)O)cc2-c2ccc(Cl)cc2)cc1 [2-A]
5,55%,COc1ccc(-n2nc(CCOC(=O)N(O)C(C)C)cc2-c2ccc(Cl)cc2)cc1 [2-B]
6,41%,COc1ccc(-n2nc(CCOC(=O)N(C)O)c(Cl)c2-c2ccc(Cl)cc2)cc1 [2-C]
7,1.5%,COc1ccc(-n2nc(CCOC(=O)N(O)C(C)C)c(Cl)c2-c2ccc(Cl)cc2)cc1 [2-D]
8,5.5%,COc1ccc(-n2nc(CCOC(=O)N(C)O)c(Br)c2-c2ccc(Cl)cc2)cc1 [2-E]
9,4%,COc1ccc(-n2nc(CCOC(=O)N(O)C(C)C)c(Br)c2-c2ccc(Cl)cc2)cc1 [2-F]
10,100%,COc1ccc(-n2nc(CCOC(=O)N(C)O)cc2-c2ccc(C)cc2)cc1 [2-G]
11,100%,COc1ccc(-n2nc(CCOC(=O)N(O)C(C)C)cc2-c2ccc(C)cc2)cc1 [2-H]
12,52%,COc1ccc(-n2nc(CCOC(=O)N(C)O)c(Cl)c2-c2ccc(C)cc2)cc1 [2-I]
13,42%,COc1ccc(-n2nc(CCOC(=O)N(O)C(C)C)c(Cl)c2-c2ccc(C)cc2)cc1 [2-J]
14,35%,COc1ccc(-n2nc(CCOC(=O)NO)c(Br)c2-c2ccc(C)cc2)cc1 [2-K]
15,39%,COc1ccc(-n2nc(CCOC(=O)N(C)O)c(Br)c2-c2ccc(C)cc2)cc1 [2-L]

# Same assay, conditions: read-out: IC50 CO (Procedure II)
row,IC50,SMILES
1,1090 nM,COc1ccc(-n2nc(COC(=O)NO)c(Cl)c2-c2ccc(C)cc2)cc1 [1-P]
2,210 nM,COc1ccc(-n2nc(COC(=O)N(C)O)c(Cl)c2-c2ccc(C)cc2)cc1 [1-Q]
3,3800 nM,COc1ccc(-n2nc(COC(=O)N(O)C(C)C)c(Cl)c2-c2ccc(C)cc2)cc1 [1-R]
4,1950 nM,COc1ccc(-n2nc(CCOC(=O)N(C)O)cc2-c2ccc(Cl)cc2)cc1 [2-A]
5,500 nM,COc1ccc(-n2nc(CCOC(=O)N(O)C(C)C)cc2-c2ccc(Cl)cc2)cc1 [2-B]
6,2720 nM,COc1ccc(-n2nc(CCOC(=O)N(C)O)c(Cl)c2-c2ccc(Cl)cc2)cc1 [2-C]
7,250 nM,COc1ccc(-n2nc(CCOC(=O)N(O)C(C)C)c(Cl)c2-c2ccc(Cl)cc2)cc1 [2-D]
8,2700 nM,COc1ccc(-n2nc(CCOC(=O)N(C)O)c(Br)c2-c2ccc(Cl)cc2)cc1 [2-E]
9,410 nM,COc1ccc(-n2nc(CCOC(=O)N(O)C(C)C)c(Br)c2-c2ccc(Cl)cc2)cc1 [2-F]
10,400 nM,COc1ccc(-n2nc(CCOC(=O)N(C)O)cc2-c2ccc(C)cc2)cc1 [2-G]
11,40 nM,COc1ccc(-n2nc(CCOC(=O)N(O)C(C)C)cc2-c2ccc(C)cc2)cc1 [2-H]
12,2010 nM,COc1ccc(-n2nc(CCOC(=O)N(C)O)c(Cl)c2-c2ccc(C)cc2)cc1 [2-I]
13,480 nM,COc1ccc(-n2nc(CCOC(=O)N(O)C(C)C)c(Cl)c2-c2ccc(C)cc2)cc1 [2-J]
14,410 nM,COc1ccc(-n2nc(CCOC(=O)NO)c(Br)c2-c2ccc(C)cc2)cc1 [2-K]
15,830 nM,COc1ccc(-n2nc(CCOC(=O)N(C)O)c(Br)c2-c2ccc(C)cc2)cc1 [2-L]

# Biological target: T2, Sheep Seminal Vesicle Cyclooxygenase (Ovis aries, UniProt P05979)
# T2 construct: purchased Biomol (Plymouth Meeting, Pa.); host or cells: sheep seminal vesicle
# T2 sequence (P05979 25-600): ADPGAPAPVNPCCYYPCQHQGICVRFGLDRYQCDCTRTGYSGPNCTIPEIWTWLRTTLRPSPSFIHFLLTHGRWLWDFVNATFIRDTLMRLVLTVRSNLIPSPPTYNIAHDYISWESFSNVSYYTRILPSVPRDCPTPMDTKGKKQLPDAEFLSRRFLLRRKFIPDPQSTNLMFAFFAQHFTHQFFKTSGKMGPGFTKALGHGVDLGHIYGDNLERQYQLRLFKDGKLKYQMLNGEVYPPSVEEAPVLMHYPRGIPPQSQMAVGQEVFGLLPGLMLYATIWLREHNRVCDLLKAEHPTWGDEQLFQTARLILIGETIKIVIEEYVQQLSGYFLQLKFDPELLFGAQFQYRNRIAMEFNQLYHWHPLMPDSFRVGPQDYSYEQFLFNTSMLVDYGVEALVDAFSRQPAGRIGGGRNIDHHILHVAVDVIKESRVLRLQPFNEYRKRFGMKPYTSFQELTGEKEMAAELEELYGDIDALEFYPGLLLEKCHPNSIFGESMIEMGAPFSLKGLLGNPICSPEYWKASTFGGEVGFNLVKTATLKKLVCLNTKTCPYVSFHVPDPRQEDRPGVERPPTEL
# Experiment: Procedure I: sheep seminal vesicle (SSV) cyclooxygenase inhibition
# Assay type: biochemical
# Details: SSV CO
# Description: Sheep Seminal Vesicle Cyclooxygenase Sheep seminal vesicle (SSV) cyclooxygenase (95% pure, prostaglandin endoperoxide synthase, EC 1.14.99.1 specific activity 24 units/mg protein) obtained as a lyophilized powder from Biomol (Plymouth Meeting, Pa.) was reconstituted at a concentration of 59 mg/mL in Hanks' Balanced Salt Solution (HBSS). The enzyme was divided into 200 μL aliquots, snap frozen with liquid N2, and stored at -70° C. until immediately prior to use. Measurements of CO activity were carried out in polypropylene tubes containing 495 μL of HBSS to which was added 5 μL Of inhibitor or dimethylsulfoxide (DMSO; vehicle control) and 6 μL of SSV CO solution. The tubes were mixed on a vortex shaker, preincubated for 5 min at 37° C. prior to the initiation of the reaction. The reaction was started by the addition of [^14 C]-arachidonic acid (1-^14 C-AA, Amersham, Arlington Heights, Ill.) in 10 μL of methanol. Tubes were again vortexed and incubated in a water bath for 20 minutes after which the tubes were removed and the reaction stopped by acidification with the addition of 1 mL 2M formic acid. Lipophilic products were extracted with 3 mL chloroform and concentrated to dryness under N2. Each pellet was reconstituted with 40 μL of chloroform and spotted on a Whatman Silicon thin-layer chromatography plate and developed in a chromatography tank containing A-9 solvent (11:5:2:1 V:V:V:V, ethyl acetate:trimethyl-pentane:acetic acid:double distilled-H2 O). Radioactive cyclooxygenase products (prostaglandin D2, prostaglandin E2, etc.) were measured using a Bioscan System 200 Imaging Scanner. Inhibition of enzyme activity was calculated by comparing the areas under the curve produced in the presence or absence of test compound. In the following tables, the superscripts indicate the number of experiments and, unless otherwise stated, the dose at which % inhibition is reported is 3 MPK.
row,IC50,SMILES
1,5000 nM,COc1ccc(-n2nc(COC(=O)NO)c(Cl)c2-c2ccc(C)cc2)cc1 [1-P]
2,2160 nM,COc1ccc(-n2nc(COC(=O)N(C)O)c(Cl)c2-c2ccc(C)cc2)cc1 [1-Q]
3,2010 nM,COc1ccc(-n2nc(CCOC(=O)N(C)O)cc2-c2ccc(Cl)cc2)cc1 [2-A]
4,960 nM,COc1ccc(-n2nc(CCOC(=O)N(O)C(C)C)cc2-c2ccc(Cl)cc2)cc1 [2-B]
5,1850 nM,COc1ccc(-n2nc(CCOC(=O)N(C)O)c(Cl)c2-c2ccc(Cl)cc2)cc1 [2-C]
6,290 nM,COc1ccc(-n2nc(CCOC(=O)N(O)C(C)C)c(Cl)c2-c2ccc(Cl)cc2)cc1 [2-D]
7,1970 nM,COc1ccc(-n2nc(CCOC(=O)N(C)O)c(Br)c2-c2ccc(Cl)cc2)cc1 [2-E]
8,480 nM,COc1ccc(-n2nc(CCOC(=O)N(O)C(C)C)c(Br)c2-c2ccc(Cl)cc2)cc1 [2-F]
9,410 nM,COc1ccc(-n2nc(CCOC(=O)N(C)O)cc2-c2ccc(C)cc2)cc1 [2-G]
10,220 nM,COc1ccc(-n2nc(CCOC(=O)N(O)C(C)C)cc2-c2ccc(C)cc2)cc1 [2-H]
11,3500 nM,COc1ccc(-n2nc(CCOC(=O)N(C)O)c(Cl)c2-c2ccc(C)cc2)cc1 [2-I]
12,4500 nM,COc1ccc(-n2nc(CCOC(=O)N(O)C(C)C)c(Cl)c2-c2ccc(C)cc2)cc1 [2-J]

# Same assay, conditions: dose 3 MPK unless otherwise stated (so in the source)
row,% INHIB. CO (Procedure I),SMILES
1,52%,COc1ccc(-n2nc(COC(=O)NO)c(Cl)c2-c2ccc(C)cc2)cc1 [1-P]
2,93%,COc1ccc(-n2nc(COC(=O)N(C)O)c(Cl)c2-c2ccc(C)cc2)cc1 [1-Q]
3,11%,COc1ccc(-n2nc(COC(=O)N(O)C(C)C)c(Cl)c2-c2ccc(C)cc2)cc1 [1-R]
4,100%,COc1ccc(-n2nc(CCOC(=O)N(C)O)cc2-c2ccc(Cl)cc2)cc1 [2-A]
5,100%,COc1ccc(-n2nc(CCOC(=O)N(O)C(C)C)cc2-c2ccc(Cl)cc2)cc1 [2-B]
6,100%,COc1ccc(-n2nc(CCOC(=O)N(C)O)c(Cl)c2-c2ccc(Cl)cc2)cc1 [2-C]
7,63%,COc1ccc(-n2nc(CCOC(=O)N(O)C(C)C)c(Cl)c2-c2ccc(Cl)cc2)cc1 [2-D]
8,37%,COc1ccc(-n2nc(CCOC(=O)N(C)O)c(Br)c2-c2ccc(Cl)cc2)cc1 [2-E]
9,58%,COc1ccc(-n2nc(CCOC(=O)N(O)C(C)C)c(Br)c2-c2ccc(Cl)cc2)cc1 [2-F]
10,100%,COc1ccc(-n2nc(CCOC(=O)N(C)O)cc2-c2ccc(C)cc2)cc1 [2-G]
11,94%,COc1ccc(-n2nc(CCOC(=O)N(O)C(C)C)cc2-c2ccc(C)cc2)cc1 [2-H]
12,80%,COc1ccc(-n2nc(CCOC(=O)N(C)O)c(Cl)c2-c2ccc(C)cc2)cc1 [2-I]
13,88%,COc1ccc(-n2nc(CCOC(=O)N(O)C(C)C)c(Cl)c2-c2ccc(C)cc2)cc1 [2-J]
14,21%,COc1ccc(-n2nc(CCOC(=O)NO)c(Br)c2-c2ccc(C)cc2)cc1 [2-K]
15,22%,COc1ccc(-n2nc(CCOC(=O)N(C)O)c(Br)c2-c2ccc(C)cc2)cc1 [2-L]
